In patent US10793557B2, “Sting agonist compounds” (Merck Sharp & Dohme Corp., priority 2018, dated 2020) one finds EC50, inhibition and activation data, which are given here for 17 molecules.

The target in one test is T1, full-length HAQ STING (Homo sapiens, UniProt Q86WV6, G230A/H232R/R293Q/R71H).
T1 construct: AviTag (after GG linker) (C); HRV3C cleavage site (after GS linker) (C); HIS8 (C); made in house; host or cells: Trichoplusia ni (Hi-Five) insect cells infected with baculovirus (virus generated and amplified in Sf21 cells); used as a washed membrane preparation
In words: 3H-cGAMP filtration binding assay (HAQ STING). To be noted: competition with tritiated cGAMP, HAQ STING membrane. Summed up:
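Hi-Five (T. ni) membranes overexpressing the STING variant (2.2 ug/ml working) preincubated with compound 60 min at RT in PBS, then [3H]cGAMP (8 nM working stock) added for 60 min at RT. Bound radioactivity captured on GF/B filters and counted by scintillation; EC50 from 4-parameter fit of control-normalized activity.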

In another test the target is T2, full-length WT STING (Homo sapiens, UniProt Q86WV6, H232R).
T2 construct: AviTag (after gg linker) (C); HRV3C cleavage site (after gs linker) (C); HIS8 (C); made in house; host or cells: Trichoplusia ni (Hi-Five) insect cells infected with baculovirus (virus generated and amplified in Sf21 cells); used as a washed membrane preparation
The test is described as follows: 3H-cGAMP filtration binding assay (WT STING). To be noted: for EC50: competition with tritiated cGAMP, WT STING membrane. Summed up: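 Competitive filtration binding of [3H]cGAMP (16 nM working stock) to T. ni membranes overexpressing full-length WT human STING, 60 min at RT in PBS. Bound radioactivity counted after GF/B filtration; 10-point 1:3 titration, EC50 from 4-parameter fit after control normalisation.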

Test [1] relates to secretion of interferon-beta from THP1 cells. In words: IFN-β secretion in THP1 cell culture (5 h). The class given is cell-based. To be noted: Homo sapiens, THP-1, 5 h, 30 uM cGAMP = 100%; for activation at 3 µM: compound at 3 uM, read-out: % Effect relative to 2′3′-cGAMP (@ 3 uM); for activation at 30 µM: compound at 30 μM, read-out: % Effect at 30 μM relative to 2′3′-cGAMP. The procedure, abridged: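 Thawed THP1 cells (0.8×10^6/mL, RPMI with 0.5% FBS) exposed to compounds 1.5–30000 nM (0.3% DMSO) for 5 h at 37 °C. Supernatant IFN-β quantified by AlphaLISA. Percent effect normalised to 30 uM cGAMP and DMSO controls; EC50 from 4-parameter fit.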

Each structure is given as a SMILES string.

T2 sequence (Q86WV6 with tags, fused parts or gaps H232R): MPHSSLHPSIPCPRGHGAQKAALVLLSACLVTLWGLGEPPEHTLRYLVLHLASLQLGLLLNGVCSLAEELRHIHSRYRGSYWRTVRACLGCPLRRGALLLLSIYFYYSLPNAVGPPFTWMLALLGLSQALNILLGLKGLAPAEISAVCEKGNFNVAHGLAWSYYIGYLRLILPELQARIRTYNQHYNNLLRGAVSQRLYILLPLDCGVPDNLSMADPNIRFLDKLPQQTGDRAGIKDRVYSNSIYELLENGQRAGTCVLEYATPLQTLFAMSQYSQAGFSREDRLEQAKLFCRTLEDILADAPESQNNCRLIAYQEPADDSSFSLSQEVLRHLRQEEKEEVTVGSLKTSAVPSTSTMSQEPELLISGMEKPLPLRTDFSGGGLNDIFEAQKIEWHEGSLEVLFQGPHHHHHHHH
T1 sequence (Q86WV6 with tags, fused parts or gaps R71H/G230A/H232R/R293Q): as the sequence (Q86WV6 with tags, fused parts or gaps H232R) above, with R71H, G230A, R293Q counted along it

In the case of `COc1cc2sc(CC[C@H](C)C(=O)O)cc2c(Cl)c1OCCOc1c(OC)cc2sc(C(=O)C[C@H](C)C(=O)O)cc2c1Cl` [Example 154, (S)-4-(5-(2-((2-((S)-3-carboxybutyl)-4-chloro-6-methoxybenzo[b]thiophen-5-yl)oxy)ethoxy)-4-chloro-6-methoxybenzo[b]thiophen-2-yl)-2-methyl-4-oxobutanoic acid], on full-length HAQ STING, it took 694 nM to reach a half-maximal effect (EC50). At full-length WT STING (at 2,000 nM compound), 2 µM produced 30% inhibition. The activation at 3 µM in test [1] came to 76%.

Take `COc1cc2sc(C(=O)C[C@H](C)C(=O)O)cc2cc1OCCCOc1c(OC)cc2sc(C(=O)C[C@H](C)C(=O)O)cc2c1Cl` [Example 155, (S)-4-(5-(3-((2-((S)-3-carboxybutanoyl)-4-chloro-6-methoxybenzo[b]thiophen-5-yl)oxy)propoxy)-6-methoxybenzo[b]thiophen-2-yl)-2-methyl-4-oxobutanoic acid]: the results for the EC50 at full-length HAQ STING and at full-length WT STING were 3 nM and 5 nM, respectively. For the same molecule, the activation at 3 µM in test [1] turned out to be 129%.

Turning to `COc1cc2sc(C(=O)C[C@H](C)C(=O)O)cc2c(F)c1OCCCOc1c(OC)cc2sc(C(=O)C[C@H](C)C(=O)O)cc2c1F` [Example 156, (2S,2′S)-4,4′-((propane-1,3-diylbis(oxy))bis(4-fluoro-6-methoxybenzo[b]thiophene-5,2-diyl))bis(2-methyl-4-oxobutanoic acid)], the EC50 on full-length HAQ STING and on full-length WT STING was 1 nM throughout. For the same molecule, the activation at 3 µM in test [1] turned out to be 118%.

As for `CNc1cc2sc(C(=O)C[C@H](C)C(=O)O)cc2cc1OCCCOc1c(OC)cc2sc(C(=O)C[C@H](C)C(=O)O)cc2c1F` [Example 157, (S)-4-(5-(3-((2-((S)-3-carboxybutanoyl)-4-fluoro-6-methoxybenzo[b]thiophen-5-yl)oxy)propoxy)-6-(methylamino)benzo[b]thiophen-2-yl)-2-methyl-4-oxobutanoic acid], the EC50 on full-length HAQ STING and at full-length WT STING was 1 nM throughout. The activation at 3 µM in test [1] worked out at 63%.

Consider `COc1cc2sc(CC[C@H](C)C(=O)O)cc2cc1OCCCOc1c(OC)cc2sc(C(=O)C[C@H](C)C(=O)O)cc2c1F` [Example 158, (S)-4-(5-(3-((2-((S)-3-carboxybutyl)-6-methoxybenzo[b]thiophen-5-yl)oxy)propoxy)-4-fluoro-6-methoxybenzo[b]thiophen-2-yl)-2-methyl-4-oxobutanoic acid], for which the EC50 (in general, the concentration giving half of the maximal effect) on full-length HAQ STING is 2 nM; on full-length WT STING, 32 nM. Further, in test [1], the activation at 30 µM turned out to be 43%.

With `COc1cc2sc(C(=O)C[C@H](C)C(=O)O)cc2nc1OCCCc1c(OC)cc2sc(C(=O)C[C@H](C)C(=O)O)cc2c1F` [Example 159, (S)-4-(5-(3-(2-((S)-3-carboxybutanoyl)-4-fluoro-6-methoxybenzo[b]thiophen-5-yl)propoxy)-6-methoxythieno[3,2-b]pyridin-2-yl)-2-methyl-4-oxobutanoic acid], the EC50 on full-length HAQ STING and at full-length WT STING was 3 nM in each case. For the same molecule, the activation at 30 µM in test [1] worked out at 99%.

Consider `COc1cc2sc(C(=O)C[C@H](C)C(=O)O)cc2cc1OCC(C)COc1cc2cc(C(=O)C[C@H](C)C(=O)O)sc2cc1OC` [Example 160, (2S,2′S)-4,4′-(((2-methylpropane-1,3-diyl)bis(oxy))bis(6-methoxybenzo[b]thiophene-5,2-diyl))bis(2-methyl-4-oxobutanoic acid)], for which the EC50 was 1 nM at full-length HAQ STING and 6 nM at full-length WT STING. Further, the activation at 30 µM in test [1] was 18%.

On to `COc1cc2sc(C(=O)CCC(=O)O)cc2cc1OCCCc1c(OC)cc2sc(C(=O)C[C@H](C)C(=O)O)cc2c1F` [Example 161, (S)-4-(5-(3-((2-(3-carboxypropanoyl)-6-methoxybenzo[b]thiophen-5-yl)oxy)propyl)-4-fluoro-6-methoxybenzo[b]thiophen-2-yl)-2-methyl-4-oxobutanoic acid], for which the results for the EC50 at full-length HAQ STING and at full-length WT STING were 1 nM and 4 nM, respectively. Moreover, in test [1], the activation at 30 µM stood at 106%.

For `COc1cc2sc(C(=O)C[C@H](C)C(=O)O)cc2cc1OCCCc1c(OC)cc2sc(C(=O)C[C@H](C)C(=O)O)cc2c1F` [Example 162, (S)-4-(5-(3-(2-((S)-3-carboxybutanoyl)-4-fluoro-6-methoxybenzo[b]thiophen-5-yl)propoxy)-6-methoxybenzo[b]thiophen-2-yl)-2-methyl-4-oxobutanoic acid], the concentration for a half-maximal effect (EC50) at full-length HAQ STING was determined as 1 nM; on full-length WT STING it was 4 nM. In addition, the activation at 30 µM in test [1] was 98%.

Regarding `COc1cc2sc(C(=O)C[C@H](C)C(=O)O)cc2c(F)c1CCCOc1c(OC)cc2sc(C(=O)CCC(=O)O)cc2c1F` [Example 163, (S)-4-(5-(3-((2-(3-carboxypropanoyl)-4-fluoro-6-methoxybenzo[b]thiophen-5-yl)oxy)propyl)-4-fluoro-6-methoxybenzo[b]thiophen-2-yl)-2-methyl-4-oxobutanoic acid], the EC50 at full-length HAQ STING and at full-length WT STING was 1 nM throughout. Further, the activation at 30 µM in test [1] was 135%.

As to `COc1cc2sc(C(=O)C[C@H](C)C(=O)O)cc2c(F)c1CCCOc1c(OC)cc2sc(C(=O)C[C@H](C)C(=O)O)cc2c1F` [Example 164, (S)-4-(5-(3-((2-((S)-3-carboxybutanoyl)-4-fluoro-6-methoxybenzo[b]thiophen-5-yl)oxy)propyl)-4-fluoro-6-methoxybenzo[b]thiophen-2-yl)-2-methyl-4-oxobutanoic acid], the EC50 at full-length HAQ STING and at full-length WT STING was 1 nM throughout. Moreover, the activation at 30 µM in test [1] turned out to be 131%.

For the molecule `COc1cc2sc(C(=O)CC(C)(C)C(=O)O)cc2c(F)c1OCCCOc1c(OC)cc2sc(C(=O)CC(C)(C)C(=O)O)cc2c1F` [Example 165, 4,4′-((propane-1,3-diylbis(oxy))bis(4-fluoro-6-methoxybenzo[b]thiophene-5,2-diyl))bis(2,2-dimethyl-4-oxobutanoic acid)], the figures for the EC50 at full-length HAQ STING and on full-length WT STING were 2 nM and 3 nM, respectively. Moreover, the activation at 30 µM in test [1] was determined as 21%.

Regarding `COc1cc2sc(C(=O)C[C@H](C)C(=O)O)cc2cc1OCCCOc1cc2sc(C(=O)C[C@H](C)C(=O)O)cc2nc1OC` [Example 166, (S)-4-(5-(3-((2-((S)-3-carboxybutanoyl)-5-methoxythieno[3,2-b]pyridin-6-yl)oxy)propoxy)-6-methoxybenzo[b]thiophen-2-yl)-2-methyl-4-oxobutanoic acid], the EC50 on full-length HAQ STING came to 8 nM; at full-length WT STING, 117 nM. Moreover, the activation at 30 µM in test [1] turned out to be 34%.

Regarding `COc1cc2sc(C(=O)C[C@H](C)C(=O)O)cc2c(F)c1OCCCOc1cc2sc(C(=O)C[C@H](C)C(=O)O)cc2nc1OC` [Example 167, (S)-4-(6-(3-((2-((S)-3-carboxybutanoyl)-4-fluoro-6-methoxybenzo[b]thiophen-5-yl)oxy)propoxy)-5-methoxythieno[3,2-b]pyridin-2-yl)-2-methyl-4-oxobutanoic acid], the EC50 came to 4 nM at full-length HAQ STING and 19 nM on full-length WT STING. In test [1], the activation at 30 µM was 66%.

For `COc1cc2sc(C(=O)CCC(=O)O)cc2c(F)c1OCCCOc1cc2sc(C(=O)C[C@H](C)C(=O)O)cc2nc1OC` [Example 168, (S)-4-(6-(3-((2-(3-carboxypropanoyl)-4-fluoro-6-methoxybenzo[b]thiophen-5-yl)oxy)propoxy)-5-methoxythieno[3,2-b]pyridin-2-yl)-2-methyl-4-oxobutanoic acid], the EC50 at full-length HAQ STING was 13 nM; at full-length WT STING, 199 nM. In test [1], the activation at 30 µM stood at 102%.

As to `COc1cc2sc(C(=O)C[C@H](C)C(=O)O)cc2cc1OCCCOc1c(OC)cc2sc(CC[C@H](C)C(=O)O)cc2c1F` [Example 169, (S)-4-(5-(3-((2-((S)-3-carboxybutyl)-4-fluoro-6-methoxybenzo[b]thiophen-5-yl)oxy)propoxy)-6-methoxybenzo[b]thiophen-2-yl)-2-methyl-4-oxobutanoic acid], the values for the concentration giving a half-maximal response (EC50) at full-length HAQ STING and on full-length WT STING were 1 nM and 18 nM, respectively. In addition, the activation at 30 µM in test [1] is 64%.

For `COc1cc2sc(C(=O)C[C@H](C)C(=O)O)cc2cc1OCCCOc1c(OC)cc2sc(C(=O)[C@@H]3CC[C@H]3C(=O)O)cc2c1F` [Example 170, trans-2-(5-(3-((2-((S)-3-carboxybutanoyl)-6-methoxybenzo[b]thiophen-5-yl)oxy)propoxy)-4-fluoro-6-methoxybenzo[b]thiophene-2-carbonyl)cyclobutanecarboxylic acid], the concentration for a half-maximal effect (EC50) at full-length HAQ STING was 1 nM; on full-length WT STING, 3 nM. The activation at 30 µM in test [1] turned out to be 86%.
